From patent US5869450A, “Anti-inflammatory compositions and method with corticotropin-releasing factor analogs” (priority 1996, dated 1999)
Non-standard residues stand in square brackets, D forms with d. No end group written: not given here.

What was measured:
[1] = target: T1, CRF-R2β (Mus musculus, UniProt Q60748); assay: cAMP stimulation in 293-EBNA cells transfected with CRF-R2β (HM-CRF receptor); format: cell-based; settings: Table 2; for EC50: cAMP, 293-EBNA stable transfectants
T1 construct: Cells were transfected with the full-length cDNA of these receptors; expressed in transfected cells
Procedure: For another assay, two types of cloned CRF receptors were assessed for their responses to the CRF analogs. These were the pituitary-central nervous system (PC)-CRF receptor and the heart muscle (HM)-CRF receptor, also called CRF-R1 and CRF-R2β. Cells were transfected with the full-length cDNA of these receptors. These procedures were performed according to Chang et al., Neuron, 11, pp. 1187-1195 (1993) and Kishimoto et al., Proc. Natl. Acad. Sci. USA, 92, pp. 1108 (1995). cDNAS for the PC-CRF receptor and the HM-CRF receptor were subcloned into expression vector pCEP4 and transfected into 293-EBNA cells. Stable transfectants were incubated with 50 μM 3-isobutylmethyl-1-methylxanthine for 20 minutes at 37° C. and then peptides were added and incubated for another 20 minutes at 37° C. Levels of cAMP were assayed in sextuplicate. Cells transfected with these CRF receptors are sensitive to the cAMP stimulatory effects of CRF. […] As noted previously, the anti-inflammatory potency of these two analogs were also identical.

[2] = target: T2, CRF-R1 (Rattus norvegicus, UniProt P35353); assay: cAMP stimulation in 293-EBNA cells transfected with CRF-R1 (PC-CRF receptor); format: cell-based; settings: for EC50: Table 2, cAMP, 293-EBNA stable transfectants
T2 construct: Cells were transfected with the full-length cDNA of these receptors; expressed in transfected cells
T2 sequence (P35353 24-415): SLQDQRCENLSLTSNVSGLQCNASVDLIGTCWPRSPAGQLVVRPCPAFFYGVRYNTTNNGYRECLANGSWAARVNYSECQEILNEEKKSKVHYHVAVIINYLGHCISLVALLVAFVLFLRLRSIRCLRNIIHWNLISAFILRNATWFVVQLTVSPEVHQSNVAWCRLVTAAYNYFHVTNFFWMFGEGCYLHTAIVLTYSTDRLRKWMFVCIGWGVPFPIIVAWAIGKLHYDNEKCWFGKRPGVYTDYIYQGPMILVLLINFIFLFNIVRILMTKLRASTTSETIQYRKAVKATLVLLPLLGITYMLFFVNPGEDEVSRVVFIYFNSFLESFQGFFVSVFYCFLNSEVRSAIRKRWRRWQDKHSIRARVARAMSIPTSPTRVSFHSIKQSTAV
Procedure: These were the pituitary-central nervous system (PC)-CRF receptor and the heart muscle (HM)-CRF receptor, also called CRF-R1 and CRF-R2β. Cells were transfected with the full-length cDNA of these receptors. […] Stable transfectants were incubated with 50 μM 3-isobutylmethyl-1-methylxanthine for 20 minutes at 37° C. and then peptides were added and incubated for another 20 minutes at 37° C. Levels of cAMP were assayed in sextuplicate. Cells transfected with these CRF receptors are sensitive to the cAMP stimulatory effects of CRF.

[3] = tested on: ACTH release; assay: Relative ACTH-releasing potency of singly D-substituted ovine CRF analogs (FIG. 1); settings: relative to unmodified oCRF
Source text: Turning to FIG. 1, 37 different ovine CRF analogs were singly substituted with a D-amino acid and screened for suppression of heat-induced edema and relative ACTH-releasing potency. […]

[4] = tested on: heat-induced edema; assay: Suppression of heat-induced edema in the anesthetized rat hind paw; format: in vivo
Procedure: The index of anti-inflammatory activity was measured as suppression by heat-induced edema. Briefly, male Sprague-Dawley rats weighing 200-250 g were anesthetized with sodium pentobarbital (60 mg/kg i.p.). Saline (1 ml/kg body weight) or test substances dissolved in saline were injected i.v. via a branch of the femoral vein. Ten minutes after injection, thermal stimulus was applied to the hind paw by immersion of the foot, up to the ankle joint, in 58° C. water for 1 minute. Thirty minutes after heat exposure, animals were killed by overdose with concentrated sodium pentobarbital and both hind paws were removed at the ankle joint and weighed. The degree of heat-induced edema was estimated as the difference between the weights of the heated and unheated paws divided by the weight of the unheated paw. Four to six analogs (N≥3 animals per dose level with 3 to 4 dose levels per analog) were tested on each occasion with concurrent saline controls. The median effective dose (ED50) was calculated according to the method of Litchfield and Wilcoxon (1949).

[5] = tested on: rat pituitary cells; assay: In vitro ACTH release from rat pituitary segments, radioimmunoassay (FIG. 2); format: cell-based; settings: ir-ACTH
Procedure: In determining ACTH release, an useful assay system to measure ACTH release by an in vitro assay is where basal or CRF-induced ACTH release is measured in the manner described by Vale et al. ("Assay of Corticotropin Releasing Factor," Methods in Enzymology: Neuroendocrine Peptides, 103, pp. 565-577, Conn. Ed., Academic Press, New York, 1983). The results shown in FIG. 2 were obtained by incubating the test peptides with segments of rat pituitary cells. After incubation the ACTH in the fluid bathing these segments were measured by radioimmunoassay (ir-ACTH) in units of pg of ACTH per mg of pituitary tissue. […] After the addition of CRF, this is increased in a dose-dependent relationship. […] However, the anti-edema potencies between these two peptides were identical.

[6] = target: T3, CRF binding protein (Homo sapiens, UniProt P24387); assay: Complex formation of I125-labelled peptide with CRF-binding protein, Sephadex G100 column; settings: radio-iodinated peptide, Sephadex G100 fractions
T3 sequence (P24387 25-322): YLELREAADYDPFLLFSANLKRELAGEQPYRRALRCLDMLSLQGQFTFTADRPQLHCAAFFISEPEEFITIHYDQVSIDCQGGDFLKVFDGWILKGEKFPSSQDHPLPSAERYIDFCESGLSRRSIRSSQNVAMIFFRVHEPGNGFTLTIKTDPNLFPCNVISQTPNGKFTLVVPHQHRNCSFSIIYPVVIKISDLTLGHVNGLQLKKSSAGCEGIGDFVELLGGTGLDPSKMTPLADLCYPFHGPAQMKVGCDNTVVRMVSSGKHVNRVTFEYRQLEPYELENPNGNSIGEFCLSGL
Procedure: Both peptides were radio-iodinated with I^125, incubated with CRF-binding protein, placed on a Sephadex G100 column and the fractions collected.

[7] = tested on: heat-induced edema; settings: intravenous; Wei and Kiang 1989; cited from earlier work
[8] = i.v. 10 min before 58° C. water for 1 minute, paw weight 30 min after heat, 95% CL in brackets

T1 sequence (Q60748 1-431 isoform Q60748-2): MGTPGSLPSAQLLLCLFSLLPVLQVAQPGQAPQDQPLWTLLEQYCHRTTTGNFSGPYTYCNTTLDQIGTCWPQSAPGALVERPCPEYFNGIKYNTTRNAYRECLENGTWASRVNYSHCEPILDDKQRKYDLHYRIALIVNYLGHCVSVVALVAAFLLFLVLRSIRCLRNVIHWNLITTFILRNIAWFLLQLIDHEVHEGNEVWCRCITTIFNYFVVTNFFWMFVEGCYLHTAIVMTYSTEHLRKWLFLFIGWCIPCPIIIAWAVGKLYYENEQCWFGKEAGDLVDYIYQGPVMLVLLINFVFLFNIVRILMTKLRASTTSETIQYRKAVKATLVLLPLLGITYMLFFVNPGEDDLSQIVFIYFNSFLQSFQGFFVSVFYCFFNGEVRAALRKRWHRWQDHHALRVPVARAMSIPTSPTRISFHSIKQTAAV

CC[C@H](C)[C@H](NC(=O)[C@H](CO)NC(=O)[C@H](CC(C)C)NC(=O)[C@@H]1CCCN1C(=O)[C@@H]1CCCN1C(=O)[C@H](CC(=O)O)NC(=O)[C@@H](N)CC(=O)O)C(=O)N[C@@H](CC(=O)O)C(=O)N[C@@H](CC(C)C)C(=O)N[C@H](C(=O)N[C@@H](Cc1ccccc1)C(=O)N[C@@H](Cc1c[nH]cn1)C(=O)N[C@@H](CC(C)C)C(=O)N[C@@H](CC(C)C)C(=O)N[C@@H](CCCNC(=N)N)C(=O)N[C@H](C(=O)N[C@@H](CC(C)C)C(=O)N[C@@H](CC(C)C)C(=O)N[C@@H](CCC(=O)O)C(=O)N[C@@H](CC(C)C)C(=O)N[C@@H](C)C(=O)N[C@@H](CCCNC(=N)N)C(=O)N[C@H](C(=O)N[C@@H](CCC(N)=O)C(=O)N[C@@H](CO)C(=O)N[C@@H](CCC(N)=O)C(=O)N[C@@H](CCCNC(=N)N)C(=O)N[C@@H](CCC(=O)O)C(=O)N[C@@H](CCCNC(=N)N)C(=O)N[C@@H](C)C(=O)N[C@@H](CCC(=O)O)C(=O)N[C@@H](CCC(N)=O)C(=O)N[C@@H](CC(N)=O)C(=O)N[C@@H](CCCNC(=N)N)C(=O)N[C@H](C(=O)N[C@H](C(=O)N[C@@H](Cc1ccccc1)C(=O)N[C@@H](CC(=O)O)C(=O)N[C@@H](CO)C(=O)N[C@H](C(N)=O)C(C)C)[C@@H](C)CC)[C@@H](C)CC)[C@@H](C)O)[C@@H](C)O)[C@@H](C)O [urocortin (rat), reference compound]
EC50 [1]: 0.32 nM | EC50 [2]: 0.15 nM

CC[C@H](C)[C@H](NC(=O)[C@H](CC(=O)O)NC(=O)[C@H](CC(C)C)NC(=O)[C@H](CC(C)C)NC(=O)[C@H](CCCCN)NC(=O)[C@H](CCCNC(=N)N)NC(=O)[C@H](CC(N)=O)NC(=O)[C@H](CO)NC(=O)[C@H](Cc1c[nH]cn1)NC(=O)[C@H](C)NC(=O)[C@H](CCC(N)=O)NC(=O)[C@H](CCC(N)=O)NC(=O)[C@H](C)NC(=O)[C@H](CC(C)C)NC(=O)[C@H](CCC(N)=O)NC(=O)[C@H](CC(=O)O)NC(=O)[C@H](C)NC(=O)[C@H](CCCCN)NC(=O)[C@@H](NC(=O)[C@H](CCSC)NC(=O)[C@H](CCC(=O)O)NC(=O)[C@H](CC(C)C)NC(=O)[C@@H](NC(=O)[C@H](CCC(=O)O)NC(=O)[C@H](CCCNC(=N)N)NC(=O)[C@H](CC(C)C)NC(=O)[C@H](CC(C)C)NC(=O)[C@H](Cc1c[nH]cn1)NC(=O)[C@H](Cc1ccccc1)NC(=O)[C@@H](NC(=O)[C@H](CC(C)C)NC(=O)[C@H](CC(=O)O)NC(=O)[C@H](CC(C)C)NC(=O)[C@H](CO)NC(=O)[C@@H](NC(=O)[C@H]1CCCN1C(=O)[C@@H]1CCCN1C(=O)[C@H](CCC(=O)O)NC(=O)[C@H](CCC(N)=O)NC(=O)[C@@H](N)CO)[C@@H](C)CC)[C@@H](C)O)C(C)C)[C@@H](C)O)C(=O)N[C@@H](C)C(N)=O [[D-Pro^5]oCRF]
ACTH-releasing potency retained relative to the unmodified peptide [3]: 8%

[D-Pro^5 ] human/rat CRF [[D-Pro^5]h/rCRF]
ED50 (95% CL) μg/kg i.v. ([4]; Table 3, i.v.): 10 µg/kg | ED50 (95% CL) μg/kg i.v. [4, 8]: 10 (3-33) μg/kg | decrease of potency for ACTH release versus CRF [5]: at least 10 fold | complex formation with CRF-binding protein [6]: formed a complex with binding protein | change of potency for CRF-R1 after replacement of Pro5 by D-Pro ([2]; FIG. 3, versus h/rCRF): reduced by about six-fold

CC[C@H](C)[C@H](NC(=O)[C@H](CO)NC(=O)[C@H](CC(C)C)NC(=O)[C@H]1CCCN1C(=O)[C@@H]1CCCN1C(=O)[C@H](CC(=O)O)NC(=O)[C@@H](N)CC(=O)O)C(=O)N[C@@H](CC(=O)O)C(=O)N[C@@H](CC(C)C)C(=O)N[C@H](C(=O)N[C@@H](Cc1ccccc1)C(=O)N[C@@H](Cc1c[nH]cn1)C(=O)N[C@@H](CC(C)C)C(=O)N[C@@H](CC(C)C)C(=O)N[C@@H](CCCNC(=N)N)C(=O)N[C@H](C(=O)N[C@@H](CC(C)C)C(=O)N[C@@H](CC(C)C)C(=O)N[C@@H](CCC(=O)O)C(=O)N[C@@H](CC(C)C)C(=O)N[C@@H](C)C(=O)N[C@@H](CCCNC(=N)N)C(=O)N[C@H](C(=O)N[C@@H](CCC(N)=O)C(=O)N[C@@H](CO)C(=O)N[C@@H](CCC(N)=O)C(=O)N[C@@H](CCCNC(=N)N)C(=O)N[C@@H](CCC(=O)O)C(=O)N[C@@H](CCCNC(=N)N)C(=O)N[C@@H](C)C(=O)N[C@@H](CCC(=O)O)C(=O)N[C@@H](CCC(N)=O)C(=O)N[C@@H](CC(N)=O)C(=O)N[C@@H](CCCNC(=N)N)C(=O)N[C@H](C(=O)N[C@H](C(=O)N[C@@H](Cc1ccccc1)C(=O)N[C@@H](CC(=O)O)C(=O)N[C@@H](CO)C(=O)N[C@H](C(N)=O)C(C)C)[C@@H](C)CC)[C@@H](C)CC)[C@@H](C)O)[C@@H](C)O)[C@@H](C)O [[D-Pro^4]urocortin (rat)]
Increment in Selectivity ([1]; D-substituted analog versus parent peptide): 2.5 fold | EC50 [1]: 1 nM | EC50 [2]: 0.2 nM

NDDP[dP]ISIDLTFHLLRNMIEMARIENEREQAGLNRKYLDEV-NH2 [[D-Pro^5]white sucker fish urotensin I]
ED50 (95% CL) μg/kg i.v. [4, 8]: 9 (5-17) μg/kg

CC[C@H](C)[C@H](NC(=O)[C@@H](NC(=O)[C@H](CC(=O)O)NC(=O)[C@H](CC(C)C)NC(=O)[C@H](CC(C)C)NC(=O)[C@H](CC(C)C)NC(=O)[C@H](CCCNC(=N)N)NC(=O)[C@H](CC(N)=O)NC(=O)[C@H](CC(N)=O)NC(=O)[C@H](C)NC(=O)[C@H](C)NC(=O)[C@H](CCC(N)=O)NC(=O)[C@H](CCC(N)=O)NC(=O)[C@H](CCCCN)NC(=O)[C@H](CCC(=O)O)NC(=O)[C@H](CCCCN)NC(=O)[C@H](CCC(=O)O)NC(=O)[C@H](CCC(N)=O)NC(=O)[C@H](CCCCN)NC(=O)[C@H](CCC(=O)O)NC(=O)[C@@H](NC(=O)[C@H](CCC(=O)O)NC(=O)[C@@H](NC(=O)[C@H](CCSC)NC(=O)[C@H](CCCCN)NC(=O)[C@H](CCCNC(=N)N)NC(=O)[C@H](CC(C)C)NC(=O)[C@H](CC(C)C)NC(=O)[C@H](CCC(=O)O)NC(=O)[C@H](CC(C)C)NC(=O)[C@H](CO)NC(=O)[C@H](CC(C)C)NC(=O)[C@H](CC(=O)O)NC(=O)[C@@H](NC(=O)[C@H](CO)NC(=O)[C@@H](NC(=O)[C@@H]1CCCN1C(=O)[C@@H]1CCCN1C(=O)CNC(=O)[C@@H]1CCC(=O)N1)[C@@H](C)CC)[C@@H](C)CC)[C@@H](C)CC)[C@@H](C)CC)[C@@H](C)O)C(N)=O [sauvagine]
ED50 for suppression of heat-induced edema in the rat [7]: 0.44 nmol/kg

SEEP[dP]ISLDLTFHLLREVLEMTKADQLAQQAHSNRKLMEII-NH2 [[D-Pro^5, Thr^22, Lys^23, Asp^25]h/rCRF]
ED50 (95% CL) μg/kg i.v. ([4]; Table 3, i.v.): 19 µg/kg | ED50 (95% CL) μg/kg i.v. [4, 8]: 19 (9-38) μg/kg | complex formation with CRF-binding protein [6]: did not form a complex with binding protein

NDDPPISIDLTFHLLRNMIEMARIENEREQAGLNRKYLDEV-NH2 (C-terminus assumed) [white sucker fish urotensin I]
ED50 for suppression of heat-induced edema in the rat [7]: 1.5 nmol/kg
